Assay results: patent US4273940A, “Bis-(2-benzylaminoethyl)-disulfides” (Abbott Laboratories, priority 1980, dated 1981)
Counter-ions that a name gives are not always drawn. Like-named read-outs stand apart in the source and are kept apart here.

Columns and labels:
[1] = tested on: human neutrophils; assay: inhibition of neutrophil locomotion (intrinsic and chemotactic), in vitro agarose test by the method of Nelson et al.; assay type: cell-based; settings: 2 hours at 37° C., duplicate, four donors; for inhibition at 100 µM: 10^-4 molar; for inhibition at 10 µM: 10^-5 molar
Protocol: The compounds of this invention show marked anti-inflammatory properties as intraperitoneal or oral doses of 25-200 mg./kg. and at intravenous doses of 10 mg./kg. and above. […] The current compounds also are inhibitors of chemotaxis of human neutrophils at molar concentrations of 0.00001-0.0005, causing 50-100% inhibition of intrinsic and chemotactic locomotion of the cells, as established by the method of Nelson et al. in J. Immunol. 115, 1650 (1975).
By carrying out the in vitro test of Nelson et al. referred to above, the neutrophil locomotor response modification caused by the above compounds was established. For this purpose, the compounds were dissolved in both agarose media and the media suspending the cells. The effects of the compounds were determined by comparing te chemotactic and intrinsic locomotion of the cells, both with and without the test compounds after 2 hours of incubation at 37° C. All compounds were evaluated in duplicate against the cells which were from four individual donors.

[2] = tested on: carrageenin induced hind paw edema; assay: modification of the carrageenin induced hind paw edema assay (Winter et al.); anti-inflammatory activity; assay type: in vivo; settings: for reduction of carrageenin induced swelling (volume): after 3 hours
[3] = tested on: Type III reactions (reverse passive Arthus lesion); assay: reverse passive Arthus assay (Carter and Krause); Type III reaction; assay type: in vivo; settings: 50 mg./kg. intraperitoneal, group of four animals
Protocol: Upon intraperitoneal administration to a group of four animals at a dose of 50 mg./kg., the lesion area is inhibited an average of 49% by the compound of Example 1 and 47% by the compound of Example 5.

[4] = read-out: % Inhibition of Locomotion, Chemotactic
[5] = read-out: % Inhibition of Locomotion, Intrinsic

Row | SMILES | inhibition at 100 µM [1, 4] [%] | inhibition at 100 µM [1, 5] [%] | reduction of carrageenin induced swelling (volume), acetylsalicylic acid ([2]; 50 mg/kg., corresponding measurement (3 hours)) [%] | inhibition at 10 µM [1, 4] [%] | inhibition at 10 µM [1, 5] [%] | inhibition of lesion area (average) [3] [%] | reduction of carrageenin induced swelling (volume) ([2]; 25 mg./kg. intraperitoneal) [%] | reduction of carrageenin induced swelling (volume) ([2]; 50 mg./kg. intraperitoneal) [%]
1 | Clc1cccc(Cl)c1CNCCSSCCNCc1c(Cl)cccc1Cl [Example 6, bis(2,6-dichlorobenzylaminoethyl)disulfide hydrochloride] | 85 | 74 |  |  |  |  |  | 
2 | CC(=O)Oc1ccccc1C(=O)O [acetylsalicylic acid, reference compound] |  |  | 15.4 |  |  |  |  | 
3 | CC(C)(C)c1cc(Cl)c(O)c(CNCCSSCCNCc2cc(C(C)(C)C)cc(Cl)c2O)c1 [Example 5, bis(2-hydroxy-3-chloro-5-t-butylbenzylaminoethyl)disulfide] | 100 | 85 |  | 46 | 24 | 47 |  | 
4 | COc1ccccc1CNCCSSCCNCc1ccccc1OC.Cl.Cl [Example 1, bis(2-methoxybenzylaminoethyl)disulfide dihydrochloride] | 100 | 100 |  | 93 | 94 | 49 | 14.6 | 29.9
5 | Cc1cc(C(C)(C)C)cc(CNCCSSCCNCc2cc(C(C)(C)C)cc(C)c2O)c1O [Example 4, bis(2-hydroxy-3-methyl-5-t-butylbenzylaminoethyl)disulfide dihydrochloride] | 100 | 95 |  | 48 | 50 |  |  | 
6 | Oc1ccccc1CNCCSSCCNCc1ccccc1O [Example 2, bis(2-hydroxybenzylaminoethyl)disulfide] | 100 | 100 |  |  |  |  |  | 
